These results are taken from patent US20260085053A1, “BENZOFURAN DERIVATIVES AS SIK INHIBITORS AND THE USE THEREOF” (BEONE MEDICINES I GMBH, priority 2023, published 2026).

In general, IC50 refers to the concentration that gives 50% inhibition. Read a high IC50 as weaker potency.

Experiment [1] concerns the target T1, SIK2 kinase (full length, Thermo Fisher) (Homo sapiens, UniProt Q9H0K1).
T1 construct: SIK2 kinase (full length, Thermo Fisher); purchased Thermo Fisher
The experiment in a line: Biochemical activities determination for SIK2 protein (TR-FRET). The following applies: 80 uM ATP, 0.5 μM substrate. The method in brief:
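Full-length SIK2 preincubated 60 min with 0–10 μM compound, then reacted 180 min at room temperature with 80 uM ATP and 0.5 μM biotinylated substrate (pH 7.5 Tris/MgCl2 buffer). Phosphorylation detected by TR-FRET (665/620 nm ratio, cryptate antibody/streptavidin-XL665) after overnight incubation; IC50 from four-parameter logistic fit.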
For orientation: Time-resolved FRET reads energy transfer from a long-lived donor to a nearby acceptor.

Experiment [2] addresses T2, SIK1 kinase (aa1-303, Thermo Fisher) (Homo sapiens, UniProt P57059).
T2 construct: SIK1 kinase (aa1-303, Thermo Fisher); purchased Thermo Fisher
Nature of the experiment: Biochemical activities determination for SIK1 protein (TR-FRET). The settings on record: 110 uM ATP, 0.5 μM STK1 substrate. The method, boiled down:
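TR-FRET kinase assay with SIK1 (aa1-303), 110 uM ATP, 0.5 μM STK1 substrate and 0-10 μM compound in Tris pH 7.5 with MgCl2, EGTA, DTT, Triton X-100. Enzyme preincubated with compound 60 min, reaction 180 min at room temperature; 665/620 nm ratio after overnight detection; IC50 from four-parameter logistic fit.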

Experiment [3] has as its target T3, SIK3 kinase (aa59-365, Thermo Fisher) (Homo sapiens, UniProt Q9Y2K2).
T3 construct: SIK3 kinase (aa59-365, Thermo Fisher); purchased Thermo Fisher
The experiment in a line: Biochemical activities determination for SIK3 protein (TR-FRET). The following applies: 125 uM ATP, 0.5 μM STK1 substrate. The method in brief: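 SIK3 (aa59-365) was preincubated with compound (0-10 μM) for 60 min at room temperature in Tris buffer pH 7.5. The reaction was then started with 125 uM ATP and 0.5 μM STK1 substrate and run 180 min at room temperature. Phospho-substrate was detected by HTRF (665/620 nm ratio), and IC50 came from a four-parameter logistic fit.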

T3 sequence (Q9Y2K2 59-365): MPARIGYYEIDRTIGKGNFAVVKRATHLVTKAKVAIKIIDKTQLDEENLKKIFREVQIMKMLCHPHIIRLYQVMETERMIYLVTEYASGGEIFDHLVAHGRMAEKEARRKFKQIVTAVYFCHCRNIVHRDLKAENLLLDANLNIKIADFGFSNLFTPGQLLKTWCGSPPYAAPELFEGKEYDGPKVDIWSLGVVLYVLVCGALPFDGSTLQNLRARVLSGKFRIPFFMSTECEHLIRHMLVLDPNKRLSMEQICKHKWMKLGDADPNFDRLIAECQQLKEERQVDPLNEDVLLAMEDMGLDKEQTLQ
T1 sequence (Q9H0K1 whole entry): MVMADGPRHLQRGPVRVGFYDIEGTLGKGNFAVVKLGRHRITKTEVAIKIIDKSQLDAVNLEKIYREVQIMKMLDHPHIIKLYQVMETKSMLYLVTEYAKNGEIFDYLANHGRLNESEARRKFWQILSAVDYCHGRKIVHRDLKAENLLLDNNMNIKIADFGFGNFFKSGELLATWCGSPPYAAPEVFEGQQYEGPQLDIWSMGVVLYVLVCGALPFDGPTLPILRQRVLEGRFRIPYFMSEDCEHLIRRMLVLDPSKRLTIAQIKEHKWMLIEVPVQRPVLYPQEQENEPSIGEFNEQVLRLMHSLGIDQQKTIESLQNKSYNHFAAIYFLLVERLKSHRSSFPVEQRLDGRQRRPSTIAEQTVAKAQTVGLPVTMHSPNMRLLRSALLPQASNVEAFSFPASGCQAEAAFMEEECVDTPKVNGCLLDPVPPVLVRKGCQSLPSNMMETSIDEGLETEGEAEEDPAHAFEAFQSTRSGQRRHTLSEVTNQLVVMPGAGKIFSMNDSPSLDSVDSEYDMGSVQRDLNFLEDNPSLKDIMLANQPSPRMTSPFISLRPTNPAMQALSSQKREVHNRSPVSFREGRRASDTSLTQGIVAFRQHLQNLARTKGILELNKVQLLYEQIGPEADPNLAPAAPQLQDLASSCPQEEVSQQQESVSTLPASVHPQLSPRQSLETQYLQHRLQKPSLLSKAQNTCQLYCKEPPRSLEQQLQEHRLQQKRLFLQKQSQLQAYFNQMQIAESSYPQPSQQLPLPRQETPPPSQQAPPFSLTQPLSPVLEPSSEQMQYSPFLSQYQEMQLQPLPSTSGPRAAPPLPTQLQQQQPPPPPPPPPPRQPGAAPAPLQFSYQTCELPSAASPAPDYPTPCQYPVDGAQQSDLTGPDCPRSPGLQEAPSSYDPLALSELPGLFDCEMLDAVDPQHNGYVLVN
T2 sequence (P57059 1-303): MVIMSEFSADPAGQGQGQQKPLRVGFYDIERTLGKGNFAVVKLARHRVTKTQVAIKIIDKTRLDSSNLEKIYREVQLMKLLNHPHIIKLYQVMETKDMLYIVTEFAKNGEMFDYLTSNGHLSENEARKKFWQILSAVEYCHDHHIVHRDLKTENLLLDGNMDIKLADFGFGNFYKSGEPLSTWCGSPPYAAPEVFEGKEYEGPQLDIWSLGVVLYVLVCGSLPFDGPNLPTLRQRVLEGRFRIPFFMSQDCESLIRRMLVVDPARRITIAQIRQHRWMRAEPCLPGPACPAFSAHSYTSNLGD

For the compound `COc1cc(-c2coc3cc(OCCN4CCC(C(F)(F)F)C4)ccc23)cc(OC(F)F)c1C(=O)N[C@@H]1C[C@@H]1F` (stereo partly drawn) [Compound 76, 2-(difluoromethoxy)-N-((1R,2S)-2-fluorocyclopropyl)-6-methoxy-4-(6-(2-(3-(trifluoromethyl)pyrrolidin-1-yl)ethoxy)benzofuran-3-yl)benzamide], the IC50 in experiment [1] came out at 34 nM; in experiment [2], 1010 nM; in experiment [3] it was 34 nM.

Consider `COc1cc(-c2coc3cc(OCCN4CCCC4)ccc23)cc(OC(F)F)c1C(=O)NC1CC1(F)F` (stereo not drawn) [Compound 100, N-(2,2-difluorocyclopropyl)-2-(difluoromethoxy)-6-methoxy-4-(6-(2-(pyrrolidin-1-yl)ethoxy)benzofuran-3-yl)benzamide], for which the IC50 in experiment [1] is 31 nM; in experiment [2], 3590 nM; in experiment [3] it was 80 nM.

As to `CN1CCC(n2cc(-c3ccc4c(-c5cc6c(c(OC(F)F)c5)C(=O)N(CC(F)(F)F)CC6)coc4c3)cn2)C1` (stereo not drawn) [Compound 47, 8-(difluoromethoxy)-6-(6-(1-(1-methylpyrrolidin-3-yl)-1H-pyrazol-4-yl)benzofuran-3-yl)-2-(2,2,2-trifluoroethyl)-3,4-dihydroisoquinolin-1 (2H)-one], the half-inhibitory concentration (IC50) in experiment [1] worked out at 3 nM; in experiment [2] it was 335 nM; in experiment [3], 33 nM.

As for `COc1cc(-c2coc3cc(OCCN4CCCC4)ccc23)cc(OC(F)F)c1C(=O)NC1CCCC1N` (racemic) [Compound 130, N-(2-aminocyclopentyl)-2-(difluoromethoxy)-6-methoxy-4-(6-(2-(pyrrolidin-1-yl)ethoxy)benzofuran-3-yl)benzamide], the IC50 in experiment [1] was 103 nM; in experiment [2], greater than 10000 nM; in experiment [3] it was 359 nM.

Take `COc1cc(-c2coc3cc(-c4cnn(C5CCN(C)CC5)c4)ccc23)cc(OC(F)F)c1C(=O)N[C@@H]1C[C@@H]1F` [Compound 39, 2-(difluoromethoxy)-N-((1R,2S)-2-fluorocyclopropyl)-6-methoxy-4-(6-(1-(1-methylpiperidin-4-yl)-1H-pyrazol-4-yl)benzofuran-3-yl)benzamide]: the figures for the IC50 in experiment [1], in experiment [2] and in experiment [3] were 1.7 nM, 25 nM and 4.1 nM, respectively.

`CN1CC[C@@H](Oc2cc(-c3coc4cc(OCCN5CCCC5)ccc34)cc(OC(F)F)c2C(=O)NC2CC2)C1` [Compound 110, (R)—N-cyclopropyl-2-(difluoromethoxy)-6-((1-methylpyrrolidin-3-yl)oxy)-4-(6-(2-(pyrrolidin-1-yl)ethoxy)benzofuran-3-yl)benzamide]: the results for the IC50 in experiment [1], in experiment [2] and in experiment [3] were 3850 nM, greater than 10000 nM and greater than 10000 nM, respectively.

Take `COc1cc(-c2coc3cc(-c4cnn(C5CN(C)C5)c4)ccc23)cc(OC(F)F)c1C(=O)N[C@@H]1C[C@@H]1F` [Compound 37, 2-(difluoromethoxy)-N-((1R,2S)-2-fluorocyclopropyl)-6-methoxy-4-(6-(1-(1-methylazetidin-3-yl)-1H-pyrazol-4-yl)benzofuran-3-yl)benzamide]: the half-maximal inhibitory concentration (IC50) in experiment [1] came to 1.4 nM; in experiment [2], 25 nM; in experiment [3] it was 4.2 nM.

Take `COc1cc(-c2coc3cc(OCCCN4CCCCC4)ccc23)cc(OC(F)F)c1C(=O)N[C@@H]1C[C@@H]1F` [Compound 84, 2-(difluoromethoxy)-N-((1R,2S)-2-fluorocyclopropyl)-6-methoxy-4-(6-(3-(piperidin-1-yl)propoxy)benzofuran-3-yl)benzamide]: the 50% inhibitory concentration (IC50) in experiment [1] was 9 nM; in experiment [2], 559 nM; in experiment [3] it was 44 nM.

For `COc1cc(-c2coc3cc(OCCN4CCCC[C@H]4C)ccc23)cc(OC(F)F)c1C(=O)N[C@@H]1C[C@@H]1F` [Compound 92, 2-(difluoromethoxy)-N-((1R,2S)-2-fluorocyclopropyl)-6-methoxy-4-(6-(2-((R)-2-methylpiperidin-1-yl)ethoxy)benzofuran-3-yl)benzamide], the IC50 is 32 nM in experiment [1], 3010 nM in experiment [2] and 104 nM in experiment [3].

On to `COc1cc(-c2coc3cc(-c4cnn(C)c4)ccc23)cc(OC(F)F)c1C(=O)NC1CC1` [Compound 132, N-cyclopropyl-2-(difluoromethoxy)-6-methoxy-4-(6-(1-methyl-1H-pyrazol-4-yl)benzofuran-3-yl)benzamide], for which the half-inhibitory concentration (IC50) in experiment [1] was 13 nM; in experiment [2] it was 124 nM; in experiment [3], 15 nM.

Consider `COc1cc(-c2coc3cc(OCCN4CCCCC4)ccc23)cc(OC(F)F)c1C(=O)N[C@@H]1C[C@@H]1F` [Compound 70, 2-(difluoromethoxy)-N-((1R,2S)-2-fluorocyclopropyl)-6-methoxy-4-(6-(2-(piperidin-1-yl)ethoxy)benzofuran-3-yl)benzamide], for which the IC50 is 14 nM in experiment [1], 2950 nM in experiment [2] and 42 nM in experiment [3].

Take `NC1CC(Oc2cc(-c3coc4cc(OCCN5CCCC5)ccc34)cc(OC(F)F)c2C(=O)NC2CC2)C1` (stereo not drawn) [Compound 109, 2-(3-aminocyclobutoxy)-N-cyclopropyl-6-(difluoromethoxy)-4-(6-(2-(pyrrolidin-1-yl)ethoxy)benzofuran-3-yl)benzamide]: the half-maximal inhibitory concentration (IC50) in experiment [1] is 329 nM; in experiment [2], greater than 10000 nM; in experiment [3] it was 2520 nM.

Regarding `CCOc1cncc(-c2ccc3c(-c4cc5c(c(OC)c4)C(=O)N(CC(F)(F)F)CC5)coc3c2)c1` [Example 6, 6-(6-(5-ethoxypyridin-3-yl)benzofuran-3-yl)-8-methoxy-2-(2,2,2-trifluoroethyl)-3,4-dihydroisoquinolin-1 (2H)-one], the IC50 in experiment [1] was 7460 nM; in experiment [2], greater than 10000 nM; in experiment [3] it was 1430 nM.

On to `COc1cc(-c2coc3cc(OCCN4CCCC4)ccc23)cc(OC(F)F)c1C(=O)N[C@@H]1C[C@H]1F` [Compound 97, 2-(difluoromethoxy)-N-((1R,2R)-2-fluorocyclopropyl)-6-methoxy-4-(6-(2-(pyrrolidin-1-yl)ethoxy)benzofuran-3-yl)benzamide], for which the half-maximal inhibitory concentration (IC50) in experiment [1] was 85 nM; in experiment [2], 8350 nM; in experiment [3], 289 nM.

On to `COc1cc(-c2coc3cc(OCCN4CC[C@@H](OC)C4)ccc23)cc(OC(F)F)c1C(=O)N[C@@H]1C[C@@H]1F` [Compound 79, 2-(difluoromethoxy)-N-((1R,2S)-2-fluorocyclopropyl)-6-methoxy-4-(6-(2-((R)-3-methoxypyrrolidin-1-yl)ethoxy)benzofuran-3-yl)benzamide], for which the IC50 in experiment [1] came to 19 nM; in experiment [2], 2190 nM; in experiment [3], 57 nM.

As for `COc1cc(-c2coc3cc(OCCN4CC[C@@H](C)C4)ccc23)cc(OC(F)F)c1C(=O)N[C@@H]1C[C@@H]1F` [Compound 78, 2-(difluoromethoxy)-N-((1R,2S)-2-fluorocyclopropyl)-6-methoxy-4-(6-(2-((R)-3-methylpyrrolidin-1-yl)ethoxy)benzofuran-3-yl)benzamide], the results for the IC50 in experiment [1], in experiment [2] and in experiment [3] were 19 nM, 1890 nM and 42 nM, respectively.

With `O=C1c2c(cc(-c3coc4cc(-c5cnn(C6CCOCC6)c5)ccc34)cc2OC(F)F)CCN1CC(F)(F)F` [Compound 41, 8-(difluoromethoxy)-6-(6-(1-(tetrahydro-2H-pyran-4-yl)-1H-pyrazol-4-yl)benzofuran-3-yl)-2-(2,2,2-trifluoroethyl)-3,4-dihydroisoquinolin-1 (2H)-one], the half-maximal inhibitory concentration (IC50) was 33 nM in experiment [1], 1710 nM in experiment [2] and 69 nM in experiment [3].

For `CN1CCC[C@@H]1COc1cc(-c2coc3cc(OCCN4CCCC4)ccc23)cc(OC(F)F)c1C(=O)NC1CC1` [Compound 107, (R)—N-cyclopropyl-2-(difluoromethoxy)-6-((1-methylpyrrolidin-2-yl)methoxy)-4-(6-(2-(pyrrolidin-1-yl)ethoxy)benzofuran-3-yl)benzamide], the 50% inhibitory concentration (IC50) in experiment [1] was 5610 nM; in experiment [2] it was greater than 10000 nM; in experiment [3], greater than 10000 nM.

In the case of `Cn1cc(-c2ccc3c(-c4cc5c(c(OC(F)F)c4)C(=O)N(CC(F)(F)F)CC5)coc3c2)cn1` [Example 13, 8-(difluoromethoxy)-6-(6-(1-methyl-1H-pyrazol-4-yl)benzofuran-3-yl)-2-(2,2,2-trifluoroethyl)-3,4-dihydroisoquinolin-1 (2H)-one], the half-maximal inhibitory concentration (IC50) in experiment [1] is 25 nM; in experiment [2] it was 647 nM; in experiment [3], 54 nM.

On to `COc1cc(-c2coc3cc(-c4cnn(C5CCN(C)CC5)c4)ccc23)cc2c1C(=O)N(CC(F)(F)F)CC2` [Compound 52, 8-methoxy-6-(6-(1-(1-methylpiperidin-4-yl)-1H-pyrazol-4-yl)benzofuran-3-yl)-2-(2,2,2-trifluoroethyl)-3,4-dihydroisoquinolin-1 (2H)-one], for which the values for the IC50 in experiment [1], in experiment [2] and in experiment [3] were 4.9 nM, 212 nM and 23 nM, respectively.

Turning to `Cn1cc(-c2ccc3c(-c4ccc(C#N)cc4)coc3c2)cn1` [Compound 32, 4-(6-(1-methyl-1H-pyrazol-4-yl)benzofuran-3-yl)benzonitrile], the values for the 50% inhibitory concentration (IC50) in experiment [1], in experiment [2] and in experiment [3] were 96 nM, 1880 nM and 829 nM, respectively.
